Assays:
Assay type in all cases: toxicity, cell-based
Fibroblast = assay: Incucyte cell viability with human fibroblast; settings: 10 µM, compound concentration 10 uM
HEK-293T = assay: Incucyte cell viability with HEK293T; settings: human, 10 µM, compound concentration 10 uM
U2OS = assay: Incucyte cell viability with U2OS; settings: human, 10 µM, compound concentration 10 uM
Note: unitless GR value; below 1 slowed growth and below 0 cell loss.

| Structure (SMILES) | Growth Rate (Fibroblast; 24 h, replicate number 2) | Growth Rate (HEK-293T; 6 h, replicate number 1) | Growth Rate (HEK-293T; 6 h, replicate number 2) | Growth Rate (HEK-293T; 12 h, replicate number 2) | Growth Rate (HEK-293T; 18 h, replicate number 2) | Growth Rate (HEK-293T; 24 h, replicate number 2) | Growth Rate (U2OS; 6 h, replicate number 1) | Growth Rate (U2OS; 6 h, replicate number 2) | Growth Rate (U2OS; 12 h, replicate number 1) | Growth Rate (U2OS; 18 h, replicate number 1) | Growth Rate (U2OS; 18 h, replicate number 2) | Growth Rate (Fibroblast; 6 h, replicate number 2) | Growth Rate (Fibroblast; 12 h, replicate number 2) | Growth Rate (HEK-293T; 12 h, replicate number 1) | Growth Rate (HEK-293T; 18 h, replicate number 1) | Growth Rate (HEK-293T; 24 h, replicate number 1) | Growth Rate (U2OS; 0 h, replicate number 2) | Growth Rate (U2OS; 12 h, replicate number 2) | Growth Rate (U2OS; 24 h, replicate number 2) | Growth Rate (Fibroblast; 12 h, replicate number 1) | also measured |
| --- | --- | --- | --- | --- | --- | --- | --- | --- | --- | --- | --- | --- | --- | --- | --- | --- | --- | --- | --- | --- | --- |
| Cc1nccn1CC1CCc2c(c3ccccc3n2C)C1=O.Cl (stereo not drawn) | 0.9 | 0.82 | 0.6 | 0.75 | 0.79 | 0.87 | 0.77 | 0.44 | 0.96 | 0.91 | 0.88 |  |  |  |  |  |  |  |  |  | Growth Rate (U2OS; 0 h, replicate number 1): -0.28 |
| FC(F)(F)c1ccccc1-c1cc(C(F)(F)F)c2[nH]c(C3=NOC4(CCCCC4)C3)nc2c1 | -0.03 | 0.12 | -0.15 | -0.05 | -0.02 | 0 |  |  |  |  |  | -0.79 | -0.41 | -0.3 | -0.22 | -0.23 | -0.12 | 0.98 | 0.94 |  | Growth Rate (Fibroblast; 18 h, replicate number 2): -0.08 |
| COc1cc(N)c(Cl)cc1C(=O)NC1CN2CCC1CC2.Cl (stereo not drawn) |  | -0.18 | -0.12 | 0.19 | 0.29 | 0.38 | 0.67 | 0.95 | 0.95 |  | 1 | -0.28 |  | 0.31 | 0.18 | 0.31 | -0.2 |  |  | 0.48 | Growth Rate (Fibroblast; 0 h, replicate number 2): -0.73; Growth Rate (Fibroblast; 6 h, replicate number 1): -0.82 |
| N#Cc1cccc(-c2nc(-c3cccnc3)no2)c1 | 0.92 | 0.4 | 0.1 | 0.6 | 0.95 |  |  |  | 0.67 |  | 1 | 0.7 | 0.88 |  |  |  | -0.52 |  |  | -0.97 | Growth Rate (Fibroblast; 0 h, replicate number 1): -0.49; Growth Rate (Fibroblast; 18 h, replicate number 1): -0.08; Growth Rate (Fibroblast; 18 h, replicate number 2): 0.55; Growth Rate (Fibroblast; 24 h, replicate number 1): 0.19 |
| COc1c(C(=O)/C=C/c2ccccc2)c(O)c(OC)c2occc12 | 0.71 | -0.45 | -0.38 | 0.28 | 0.53 | 0.75 | 0.86 | 0.76 | 0.64 | 0.71 | 0.55 | -0.26 | 0.35 | 0.27 | 0.86 |  | -0.14 | 0.6 | 0.83 | -0.31 | Growth Rate (Fibroblast; 18 h, replicate number 1): 0; Growth Rate (Fibroblast; 18 h, replicate number 2): 0.84; Growth Rate (Fibroblast; 24 h, replicate number 1): 0.86; Growth Rate (U2OS; 0 h, replicate number 1): -0.43; Growth Rate (U2OS; 24 h, replicate number 1): 0.78 |
| O=C1CSC(=O)N1C(CCc1ccncc1)COc1ccc(-c2cccc([N+](=O)[O-])c2)cc1 (stereo not drawn) |  | -0.06 | 0.02 | 0.27 |  | 0.65 | 0.3 |  | 0.76 | 0.8 | 0.95 |  |  | 0.24 | 0.48 | 0.87 | -0.97 | 0.94 | 1 |  | Growth Rate (Fibroblast; 0 h, replicate number 1): 0.71; Growth Rate (Fibroblast; 0 h, replicate number 2): -0.87; Growth Rate (Fibroblast; 18 h, replicate number 1): 0.92; Growth Rate (Fibroblast; 24 h, replicate number 1): 0.45; Growth Rate (U2OS; 0 h, replicate number 1): -0.68; Growth Rate (U2OS; 24 h, replicate number 1): 0.89 |
| O=c1c(Br)ccc2n1C[C@@H]1CNC[C@H]2C1 | 0.89 | 0.59 |  |  |  |  |  | 0.92 |  |  |  |  |  | 0.4 | 0.61 | 0.89 |  |  |  |  | Growth Rate (Fibroblast; 0 h, replicate number 1): 0.52; Growth Rate (Fibroblast; 0 h, replicate number 2): -0.26; Growth Rate (Fibroblast; 6 h, replicate number 1): -0.94 |
| CC(CNS(=O)(=O)C(C)C)c1ccc(-c2ccc(C#N)cc2)cc1 (stereo not drawn) | 0.51 | -0.35 |  | -0.01 | 0.16 | 0.22 |  |  | 0.81 | 0.83 | 0.73 | -0.76 | 0.02 | -0.18 | 0 | 0.05 | 0.02 | 0.82 | 0.84 | -0.89 | Growth Rate (Fibroblast; 0 h, replicate number 1): 0.04; Growth Rate (Fibroblast; 6 h, replicate number 1): 0.92; Growth Rate (Fibroblast; 18 h, replicate number 1): -0.2; Growth Rate (Fibroblast; 18 h, replicate number 2): 0.43; Growth Rate (Fibroblast; 24 h, replicate number 1): 0.14; Growth Rate (U2OS; 24 h, replicate number 1): 0.9 |
| Cc1ccc(S(=O)(=O)Nc2ccc(-n3nc(C(F)(F)F)cc3C(F)(F)F)cc2)cc1 | 0.83 | 0.36 | 0.63 | 0.66 | 0.81 | 0.92 | 0.01 | 0.69 | 0.91 | 0.74 | 0.83 | -1 | 0.78 | 0.58 | 0.47 | 0.62 |  | 0.8 | 0.72 | -1 | Growth Rate (Fibroblast; 6 h, replicate number 1): -0.21; Growth Rate (Fibroblast; 18 h, replicate number 1): 0.74; Growth Rate (U2OS; 24 h, replicate number 1): 0.84 |
| O=C(Nc1c(-c2cccs2)nc2ccc(Cl)cn12)c1ccc(Cl)cc1 |  | 0.88 |  |  |  |  | 0.3 | 0.69 | 0.64 | 0.95 | 0.75 | -1 |  |  |  |  |  | 0.81 | 0.56 | -1 | Growth Rate (Fibroblast; 0 h, replicate number 1): 0.89; Growth Rate (Fibroblast; 18 h, replicate number 1): 0.47; Growth Rate (U2OS; 24 h, replicate number 1): 0.97 |
| CC1(C)CC(CN2CCC(F)(CNC(=O)c3cc(Cl)cc(Cl)c3)CC2)CCO1 (stereo not drawn) | 0.97 | 0.4 |  |  |  |  | 0.71 | 0.8 | 0.85 |  |  | 0.34 |  |  |  |  |  |  |  |  | Growth Rate (Fibroblast; 6 h, replicate number 1): -1; Growth Rate (U2OS; 0 h, replicate number 1): -0.43 |
| Cc1c(-c2cc(-c3ccccc3Cl)no2)cnn1C1CCNCC1.Cl | -0.36 | -0.95 | -0.85 | -0.43 | -0.18 | -0.15 | 0.45 | 0.01 | 0.76 | 0.87 | 0.68 | -1 | -0.55 | -0.84 | -0.72 | -0.68 | -1 | 0.66 | 0.75 | -1 | Growth Rate (Fibroblast; 0 h, replicate number 1): 0.68; Growth Rate (Fibroblast; 6 h, replicate number 1): 0.11; Growth Rate (Fibroblast; 18 h, replicate number 2): -0.4; Growth Rate (Fibroblast; 24 h, replicate number 1): 0.83; Growth Rate (U2OS; 24 h, replicate number 1): 0.89 |
